Molecular target: T1, human TRPV4 (Homo sapiens, UniProt Q9HBA0)
T1 construct: host or cells: tetracycline-inducible Flp-In T-REx 293 cells
Experiment: Hypotonicity-induced Ca2+ influx (Fluo-4, FDSS)
Type: cell-based
Summary of the method: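 Flp-In T-REx 293 cells with tetracycline-induced human TRPV4, loaded with Fluo-4 for 60 min at 25 °C. Compound added 5 min before hypotonic mannitol/CaCl2 solution. Ca2+ signal recorded for 4.5 min on FDSS.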

[1] = Flp-In T-REx 293 cells expressing human TRPV4, examples listed under heading 'Human IC50<50 nM'
[2] = Flp-In T-REx 293 cells stably expressing human TRPV4, compounds listed by potency bin (<10 nM Tables 96-1/96-2, <3 nM Table 97)

T1 sequence (Q9HBA0 whole entry): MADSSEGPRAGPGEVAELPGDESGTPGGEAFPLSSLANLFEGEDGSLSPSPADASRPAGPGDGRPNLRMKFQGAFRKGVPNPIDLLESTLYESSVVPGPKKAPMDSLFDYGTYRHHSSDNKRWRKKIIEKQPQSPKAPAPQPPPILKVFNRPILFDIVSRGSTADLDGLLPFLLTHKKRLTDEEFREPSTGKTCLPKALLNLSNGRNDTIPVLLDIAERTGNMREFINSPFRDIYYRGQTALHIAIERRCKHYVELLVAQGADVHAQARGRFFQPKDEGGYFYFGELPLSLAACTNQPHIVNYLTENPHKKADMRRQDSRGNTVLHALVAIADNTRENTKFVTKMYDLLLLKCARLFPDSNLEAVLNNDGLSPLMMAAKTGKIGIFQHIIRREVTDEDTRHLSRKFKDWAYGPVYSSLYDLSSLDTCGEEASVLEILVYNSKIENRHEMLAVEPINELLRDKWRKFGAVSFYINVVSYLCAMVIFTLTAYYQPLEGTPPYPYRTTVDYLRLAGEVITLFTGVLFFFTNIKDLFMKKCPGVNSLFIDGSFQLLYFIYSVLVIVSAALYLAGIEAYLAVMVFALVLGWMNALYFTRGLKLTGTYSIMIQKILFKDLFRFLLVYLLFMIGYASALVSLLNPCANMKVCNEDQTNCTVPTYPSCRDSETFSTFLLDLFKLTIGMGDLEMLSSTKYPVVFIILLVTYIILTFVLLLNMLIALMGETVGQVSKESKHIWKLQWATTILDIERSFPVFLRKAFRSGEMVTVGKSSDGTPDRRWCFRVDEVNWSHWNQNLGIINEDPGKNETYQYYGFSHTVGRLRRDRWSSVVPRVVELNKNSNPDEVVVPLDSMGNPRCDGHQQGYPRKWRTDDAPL

IC50 [1] [µM]	IC50 [2] [µM]	Structure (SMILES)
< 0.05	< 0.003	Cc1cc(-c2cccc([C@@H](O)C(=O)N3CCCc4nc(C5(c6cccc(Cl)c6)CC5)[nH]c(=O)c4C3)c2)ccc1Cl [50-19]
< 0.05	< 0.01	O=C(Cc1cccc(S(F)(F)(F)(F)F)c1)N1CCCc2nc(C3(c4cccc(Cl)c4)CC3)[nH]c(=O)c2C1 [17-114]
< 0.05	< 0.01	O=C(C(O)c1cccc(-c2cccc(F)c2)c1)N1CCCc2nc(C3(c4ccccc4)CC3)[nH]c(=O)c2C1 (centres unmarked) [49-9]
< 0.05	< 0.01	O=C(C(O)c1cccc(C2CC2)c1)N1CCCc2nc(C3(c4cccc(Cl)c4)CC3)[nH]c(=O)c2C1 (centres unmarked) [17-24]
< 0.05	< 0.01	CC(C)c1csc(C2(c3nc4c(c(=O)[nH]3)CN(C(=O)C(O)c3cccc(S(F)(F)(F)(F)F)c3)CCC4)CC2)c1 (centres unmarked) [18-18]
< 0.05	< 0.01	CC(C)(C)c1cccc(C(O)C(=O)N2CCc3nc(C4(c5cccc(Cl)c5)CC4)[nH]c(=O)c3C2)c1 (centres unmarked) [14-11]
< 0.05		O=C(C(O)c1cccc(Oc2cccc(C(F)(F)F)c2)c1)N1CCc2nc(C3(c4ccccc4)CC3)[nH]c(=O)c2C1 (centres unmarked) [14-14]
< 0.05		O=C([C@H](O)c1cccc(Cl)c1)N1CCc2nc(C3(c4cc(-c5ccccc5)cs4)CC3)[nH]c(=O)c2C1 [6-21]
< 0.05	< 0.003	O=C([C@H](O)c1cccc(C(F)(F)F)c1)N1CCCc2nc(C3(c4cccc(-c5cnn(C6CCC6)c5)c4)CC3)[nH]c(=O)c2C1 [42-12]
< 0.05	< 0.01	CN(C(=O)c1csc(C2(c3nc4c(c(=O)[nH]3)CN(C(=O)[C@H](O)c3cccc(C(F)(F)F)c3)CCC4)CC2)c1)C1CCCCC1 [59-2]
< 0.05		Cn1cc(-c2cccc(C3(c4nc5c(c(=O)[nH]4)CN(C(=O)[C@H](O)c4cccc(C(F)(F)F)c4)CCC5)CC3)c2)ccc1=O [42-38]
< 0.05	< 0.003	CC(C)c1csc(C2(c3nc4c(c(=O)[nH]3)CN(C(=O)[C@H](O)c3cccc(-c5cccc(F)c5)c3)CCC4)CC2)c1 [54-5]
< 0.05		O=C([C@H](O)c1cccc(-c2ccc3cccnc3c2)c1)N1CCc2nc(C3(c4ccccc4)CC3)[nH]c(=O)c2C1 [44-90]
< 0.05	< 0.003	CN(Cc1ccc(-c2cccc(C3(c4nc5c(c(=O)[nH]4)CN(C(=O)[C@H](O)c4cccc(C(F)(F)F)c4)CCC5)CC3)c2)cc1)C(=O)NC1CCCCC1 [42-93]
< 0.05	< 0.01	Cc1ccc(-c2cccc(C3(c4nc5c(c(=O)[nH]4)CN(C(=O)[C@H](O)c4cccc(C(F)(F)F)c4)CCC5)CC3)c2)cc1 [42-57]
< 0.05	< 0.01	O=C([C@H](O)c1cccc(-c2cccc(C(F)(F)F)c2)c1)N1CCCc2nc(C3(c4cccc(C5CCCCC5)c4)CC3)[nH]c(=O)c2C1 [52-2]
< 0.05	< 0.003	COCCOc1cccc(-c2cccc(C3(c4nc5c(c(=O)[nH]4)CN(C(=O)[C@H](O)c4cccc(Cl)c4)CCC5)CC3)c2)c1 [40-22]
< 0.05	< 0.003	CN(C)c1ccc(-c2cccc(C3(c4nc5c(c(=O)[nH]4)CN(C(=O)[C@H](O)c4cccc(C(F)(F)F)c4)CCC5)CC3)c2)cc1 [42-11]
< 0.05	< 0.003	CC(C)c1cccc(-c2cccc([C@@H](O)C(=O)N3CCCc4nc(C5(c6ccccc6)CC5)[nH]c(=O)c4C3)c2)c1 [49-50]
< 0.05	< 0.01	O=C([C@H](O)c1cccc(Cl)c1)N1CCCc2nc(C3(c4cccc(-c5cccc(Cl)c5)c4)CC3)[nH]c(=O)c2C1 [40-6]
< 0.05	< 0.003	O=C([C@H](O)c1cccc(C(F)(F)F)c1)N1CCCc2nc(C3(c4cncc(-c5ccccc5)c4)CC3)[nH]c(=O)c2C1 [43-1]

IC50 [1] [µM]	IC50 [2] [µM]	Structure (SMILES)
< 0.05	< 0.01	O=C([C@H](O)c1cccc(-c2cccc(C3CC3)c2)c1)N1CCCc2nc(C3(c4cccc(-c5csc6ccccc56)c4)CC3)[nH]c(=O)c2C1 [52-15]
< 0.05	< 0.01	CC(C)(C)c1ccc(-c2cccc([C@@H](O)C(=O)N3CCCc4nc(C5(c6cccc(Cl)c6)CC5)[nH]c(=O)c4C3)c2)cc1 [50-22]
< 0.05	< 0.01	O=C(N1CCc2nc(C3(c4cncc(-c5ccccc5)c4)CC3)[nH]c(=O)c2C1)C(F)(F)c1cccc(C(F)(F)F)c1 [22-6]
< 0.05	< 0.01	CC(C)c1csc(C2(c3nc4c(c(=O)[nH]3)CN(C(=O)C(O)c3cccc(C(F)(F)F)c3F)CC4)CC2)c1 (centres unmarked) [15-26]
< 0.05	< 0.003	O=C([C@H](O)c1cccc(-c2cccc(C(F)(F)F)c2)c1)N1CCCc2nc(C3(c4cccc(Cl)c4)CC3)[nH]c(=O)c2C1 [50-4]
< 0.05	< 0.01	O=C([C@H](O)c1cccc(C(F)(F)F)c1)N1CCCc2nc(C3(c4cccc(C5CCOCC5)c4)CC3)[nH]c(=O)c2C1 [31-7]
< 0.05	< 0.01	O=C(Cc1ccccc1)N1CCN(c2ccc(-c3cccc(C4(c5nc6c(c(=O)[nH]5)CN(C(=O)[C@H](O)c5cccc(C(F)(F)F)c5)CCC6)CC4)c3)cn2)CC1 [42-86]
< 0.05	< 0.003	CC(C)c1cccc(C2(c3nc4c(c(=O)[nH]3)CN(C(=O)[C@H](O)c3cccc(-c5ccnc(C(F)(F)F)c5)c3)CCC4)CC2)c1 [51-6]
< 0.05		O=C(Cc1cccc(C(F)(F)F)c1)N1CCCc2nc(C3(c4ccccc4)CC3)[nH]c(=O)c2C1 [17-51]
< 0.05	< 0.01	O=C([C@H](O)c1cccc(C(F)(F)F)c1)N1CCCc2nc(C3(c4cccc(-c5cccc6ccccc56)c4)CC3)[nH]c(=O)c2C1 [42-49]
< 0.05		O=C(Cc1cccc(Oc2ccccc2)c1)N1CCCc2nc(C3(c4cccc(Cl)c4)CC3)[nH]c(=O)c2C1 [17-140]
< 0.05	< 0.01	O=C(Cc1ccc(COc2ccccc2)cc1)N1CCN(c2ccc(-c3cccc(C4(c5nc6c(c(=O)[nH]5)CN(C(=O)[C@H](O)c5cccc(C(F)(F)F)c5)CCC6)CC4)c3)cn2)CC1 [42-90]
< 0.05	< 0.01	O=C([C@H](O)c1cccc(C(F)(F)F)c1)N1CCCc2nc(C3(c4cccc(-c5cnco5)c4)CC3)[nH]c(=O)c2C1 [42-30]
< 0.05	< 0.01	Cc1cccc(-c2cccc(C3(c4nc5c(c(=O)[nH]4)CN(C(=O)[C@H](O)c4cccc(C(F)(F)F)c4)CCC5)CC3)c2)c1 [42-64]
< 0.05	< 0.01	COCCCc1csc(C2(c3nc4c(c(=O)[nH]3)CN(C(=O)[C@H](O)c3cccc(C(F)(F)F)c3)CCC4)CC2)c1 [30-10]
< 0.05	< 0.01	O=C(C(O)c1cccc(-c2cccc(C(F)(F)F)c2)c1)N1CCc2nc(C3(c4cccc(F)c4)CC3)[nH]c(=O)c2C1 (centres unmarked) [14-6]
< 0.05	< 0.01	O=C(C(O)c1cccc(SC(F)(F)F)c1)N1CCCc2nc(C3(c4ccccc4)CC3)[nH]c(=O)c2C1 (centres unmarked) [17-38]
< 0.05		CC(C(=O)N1CCCc2nc(C3(c4ccccc4)CC3)[nH]c(=O)c2C1)c1cccc(C(F)(F)F)c1 (centres unmarked) [17-46]
< 0.05		Cc1csc(C2(c3nc4c(c(=O)[nH]3)CN(C(=O)[C@H](O)c3cccc(Cl)c3)CC4)CC2)c1 [6-20]
< 0.05	< 0.003	O=C([C@H](O)c1cccc(C(F)(F)F)c1)N1CCCc2nc(C3(c4cccc(-c5cccnc5)c4)CC3)[nH]c(=O)c2C1 [42-8]

Source: US12673946B2, “Pyrimidin-4(3H)-one derivatives as TRPV4 antagonists” (RaQualia Pharma Inc., priority 2020, dated 2026)
